This note sets out measurements from patent US12565485B2, “Solid forms of 1-((S)-4-((R)-7-(6-amino-4-methyl-3-(trifluoromethyl)pyridin-2-yl)-6-chloro-8-fluoro-2-(((s)-1-methylpyrrolidin-2-yl)methoxy)quinazolin-4-yl)-3-methylpiperazin-1-yl)prop-2-en-1-one” (Genentech, Inc., priority 2022, dated 2026).

Common to all, as to format: physicochemical
A short description of series [1]: Heating under N2 protection (VT-XRPD), form change. As to the method:
Compound B Form A was obtained from an acetone system and the sample was air dried at RT. […] (peak temperature) before the possible overlapped peak with peak temperature at 156.3° C. (FIG. 12). Based on the integrals, the stoichiometric ratio of fumaric acid:freebase was determined to be 1.03. A peak of acetone was observed and approximately 0.49 molar acetone (4.4 wt %) was detected. The HPLC purity of Compound B Form A was determined to be 93.56 area %. […] Around 0.39 molar acetone (3.5 wt %) was still detected. One endotherm at 58.7° C. and an overlapped peak with peak temperature at 157.1° C. were still observed on the sample obtained after heating. The first endotherm might be caused by re-adsorption of moisture. Since ˜3.5 wt % acetone was still detected from NMR, Compound B Form A is expected to be an acetone/H2O co-solvate. […]

Series [2] is described as follows: Form change before and after drying (XRPD). Conditions: for Form change before and after drying: air dried at RT. As to the method: The wet sample was vacuum dried at RT for 3 hrs. […] A solid was obtained with a yield of 62.2%. […] (peak temperature). Based on the integrals in NMR spectrum, the stoichiometric ratio of adipic acid:freebase was determined to be 1.06. A peak of EtOAc was observed. Around 0.07 molar EtOAc (0.8 wt %) was detected, which was consistent with TGA weight loss.
(peak), and one small endotherm at 158.8° C. […] Based on the integrals, the stoichiometric ratio of adipic acid:freebase was determined to be 1.65.
(peak temperature). Based on the integrals, the stoichiometric ratio of adipic acid:freebase was determined to be 1.06. Peak of THF was observed. Around 0.17 molar THF (1.9 wt %) was detected, which was consistent with TGA weight loss.
Compound B Form A was obtained from an acetone system and the sample was air dried at RT. […] (peak temperature) before the possible overlapped peak with peak temperature at 156.3° C. (FIG. 12). Based on the integrals, the stoichiometric ratio of fumaric acid:freebase was determined to be 1.03. A peak of acetone was observed and approximately 0.49 molar acetone (4.4 wt %) was detected. The HPLC purity of Compound B Form A was determined to be 93.56 area %. […] Around 0.39 molar acetone (3.5 wt %) was still detected. One endotherm at 58.7° C. and an overlapped peak with peak temperature at 157.1° C. were still observed on the sample obtained after heating. The first endotherm might be caused by re-adsorption of moisture. Since ˜3.5 wt % acetone was still detected from NMR, Compound B Form A is expected to be an acetone/H2O co-solvate.
Compound C Form A was obtained from EtOAc system and the sample was air dried at RT. […] HPLC purity of Compound C Form A was determined to be 95.18 area %.

Series [3] in a line: Static storage at 25° C./97% RH and 40° C./75% RH. Conditions: after 7 days. As to the method:
Amorphous material of Compound A (mono adipate salt) was successfully prepared through freeze drying. Characterisation of the initial batch of samples were all shown to be amorphous by XRPD and the NMR's contained ca. 1.1 eq. adipic acid with varying quantities of residual solvent, except for acetonitrile/water (1:1) which contained no residual solvent. […] Static storage at 25° C./97% RH and 40° C./75% RH after 7 days were all shown to have deliquesced.

Series [4] is described as follows: Slurry competition between Compound A Form A and B. As to the method:
The suspensions were stirred at a speed of 750 rpm and tested by XRPD in transmission mode.

The nature of series [5]: VH-XRPD analysis / transitions of forms at varying relative humidity. The settings on record: dehydrated. The text has this: FIG. 19. The sample then reverts to the original form upon reaching 30% RH. […] Transitions of Forms of Compound A at varying RH.
A short description of series [6]: Approximate solubility at RT (stepwise solvent addition until visually dissolved). As for the experimental part:
The solubility of starting material was estimated at RT in 20 solvents. For each experiment, approximately 2 mg of sample was added into a 3-mL glass vial. Solvents in Table 32 were then added stepwise (50, 50, 200, 700 μL) into the vials until the solids were dissolved visually or a total volume of 1 mL was reached.

[7] abbreviates: heating to 100° C. under N2 protection, cooled down and exposed to ambient conditions.

With `C=CC(=O)N1CCN(c2nc(OC[C@@H]3CCCN3C)nc3c(F)c(-c4nc(N)cc(C)c4C(F)(F)F)c(Cl)cc23)[C@@H](C)C1.O=C(O)/C=C/C(=O)O` (atropisomer, axis not shown) [Compound B Form A], the “Form change after heating” value in series [1] (setting [7]) was “no form change was observed”. Further, the “Form change before and after drying” value in series [2] is listed as “No form change was observed”.
For `C=CC(=O)N1CCN(c2nc(OC[C@@H]3CCCN3C)nc3c(F)c(-c4nc(N)cc(C)c4C(F)(F)F)c(Cl)cc23)[C@@H](C)C1.CC(=O)O` (atropisomer, axis not shown) [Compound F Form A], in series [1] (setting [7]), the “Form change after heating” value is reported as “no form change was observed”.
Consider `C=CC(=O)N1CCN(c2nc(OC[C@@H]3CCCN3C)nc3c(F)c(-c4nc(N)cc(C)c4C(F)(F)F)c(Cl)cc23)[C@@H](C)C1.O=C(O)CCCCC(=O)O` [Amorphous material of Compound A], for which the Static storage observation entry in series [3] (25° C./97% RH) and in series [3] (40° C./75% RH) was “deliquesced” in each case.
For `C=CC(=O)N1CCN(c2nc(OC[C@@H]3CCCN3C)nc3c(F)c(-c4nc(N)cc(C)c4C(F)(F)F)c(Cl)cc23)[C@@H](C)C1.O=C(O)CCCCC(=O)O` [Compound A Form A + B], the “Slurry competition result (XRPD form)” value is “Compound A Form A” in series [4] (IPA, 5° C.); “turned to Compound A Form A” in series [4] (IPA, 5° C., listed as Compound A Form A+B); “Compound A Form A” in series [4] (IPA, −20° C.); “turned to Compound A Form A” in series [4] (IPA, −20° C., listed as Compound A Form A+B); “Compound A Form A” in series [4] (Toluene, 5 to RT (RT for 18 days)); “Compound A Form A was observed” in series [4] (Toluene, 5 to RT (RT for 18 days), listed as Compound A Form A+B). Also, the “Slurry competition result (XRPD form)” value in series [4] (Toluene, 5° C., after 5 days) was “a mixture of Compound A Form A+B was observed”.
With `C=CC(=O)N1CCN(c2nc(OC[C@@H]3CCCN3C)nc3c(F)c(-c4nc(N)cc(C)c4C(F)(F)F)c(Cl)cc23)[C@@H](C)C1` [Compound A Form B], in series [1] (heating to 90° C. under N2 protection), the “Form change after heating” value was “no form change was observed”. In addition, in series [2] (air drying at RT overnight), the “Form change after drying” value is given as “No form change was observed”.
As to `C=CC(=O)N1CCN(c2nc(OC[C@@H]3CCCN3C)nc3c(F)c(-c4nc(N)cc(C)c4C(F)(F)F)c(Cl)cc23)[C@@H](C)C1` [Compound A Form D], the Form after dehydration result in series [5] was “formed Compound A Form C”.
For `C=CC(=O)N1CCN(c2nc(OC[C@@H]3CCCN3C)nc3c(F)c(-c4nc(N)cc(C)c4C(F)(F)F)c(Cl)cc23)[C@@H](C)C1` [Compound C Form A], in series [1] (heating to 100° C. under N2 protection, cooled down and exposed to ambient conditions, listed as Form A of Compound C), the “Form change after heating” value is “no form change was observed”. For the same molecule, the “Form change before and after drying” value in series [2] is given as “No form change was observed”.
In the case of `C=CC(=O)N1CCN(c2nc(OC[C@@H]3CCCN3C)nc3c(F)c(-c4nc(N)cc(C)c4C(F)(F)F)c(Cl)cc23)[C@@H](C)C1` [starting material], the Solubility entry in series [6] (1,4-Dioxane) is on record as “S > 38.0 mg/mL”; in series [6] (2-MeTHF) it was “S > 40.0 mg/mL”; in series [6] (Acetone) it was “S > 40.0 mg/mL”; in series [6] (Anisole), “S > 38.0 mg/mL”; in series [6] (CPME), “S > 40.0 mg/mL”; in series [6] (DCM) it was “S > 38.0 mg/mL”. In addition, the Solubility entry in series [6] (DMSO) is “S > 38.0 mg/mL”; in series [6] (EtOAc), “S > 40.0 mg/mL”; in series [6] (H2O) it was “S < 2.1 mg/mL”; in series [6] (IPAc) it was “S > 40.0 mg/mL”; in series [6] (MEK), “S > 46.0 mg/mL”; in series [6] (MIBK), “S > 42.0 mg/mL”. The Solubility entry in series [6] (MeOH) is given as “S > 42.0 mg/mL”; in series [6] (THF), “S > 44.0 mg/mL”; in series [6] (Toluene), “S > 40.0 mg/mL”; in series [6] (n-Heptane), “S < 2.0 mg/mL”.
